Assay results published in ChEMBL document CHEMBL1138908, “Design and structure-activity relationship of 3-benzimidazol-2-yl-1H-indazoles as inhibitors of receptor tyrosine kinases” (Bioorg Med Chem Lett, 2006).

What was measured:
[1] = target: Vascular endothelial growth factor receptor 2 (Mus musculus, UniProt P35918); experiment: Inhibition of VEGFR2
[2] = target: Vascular endothelial growth factor receptor 1 (Homo sapiens, UniProt P17948); experiment: Inhibition of VEGFR1
[3] = target: Platelet-derived growth factor receptor beta (Mus musculus, UniProt P05622); experiment: Inhibition of PDGFRbeta
Platelet-derived growth factor receptor beta, sequence (P05622 whole entry): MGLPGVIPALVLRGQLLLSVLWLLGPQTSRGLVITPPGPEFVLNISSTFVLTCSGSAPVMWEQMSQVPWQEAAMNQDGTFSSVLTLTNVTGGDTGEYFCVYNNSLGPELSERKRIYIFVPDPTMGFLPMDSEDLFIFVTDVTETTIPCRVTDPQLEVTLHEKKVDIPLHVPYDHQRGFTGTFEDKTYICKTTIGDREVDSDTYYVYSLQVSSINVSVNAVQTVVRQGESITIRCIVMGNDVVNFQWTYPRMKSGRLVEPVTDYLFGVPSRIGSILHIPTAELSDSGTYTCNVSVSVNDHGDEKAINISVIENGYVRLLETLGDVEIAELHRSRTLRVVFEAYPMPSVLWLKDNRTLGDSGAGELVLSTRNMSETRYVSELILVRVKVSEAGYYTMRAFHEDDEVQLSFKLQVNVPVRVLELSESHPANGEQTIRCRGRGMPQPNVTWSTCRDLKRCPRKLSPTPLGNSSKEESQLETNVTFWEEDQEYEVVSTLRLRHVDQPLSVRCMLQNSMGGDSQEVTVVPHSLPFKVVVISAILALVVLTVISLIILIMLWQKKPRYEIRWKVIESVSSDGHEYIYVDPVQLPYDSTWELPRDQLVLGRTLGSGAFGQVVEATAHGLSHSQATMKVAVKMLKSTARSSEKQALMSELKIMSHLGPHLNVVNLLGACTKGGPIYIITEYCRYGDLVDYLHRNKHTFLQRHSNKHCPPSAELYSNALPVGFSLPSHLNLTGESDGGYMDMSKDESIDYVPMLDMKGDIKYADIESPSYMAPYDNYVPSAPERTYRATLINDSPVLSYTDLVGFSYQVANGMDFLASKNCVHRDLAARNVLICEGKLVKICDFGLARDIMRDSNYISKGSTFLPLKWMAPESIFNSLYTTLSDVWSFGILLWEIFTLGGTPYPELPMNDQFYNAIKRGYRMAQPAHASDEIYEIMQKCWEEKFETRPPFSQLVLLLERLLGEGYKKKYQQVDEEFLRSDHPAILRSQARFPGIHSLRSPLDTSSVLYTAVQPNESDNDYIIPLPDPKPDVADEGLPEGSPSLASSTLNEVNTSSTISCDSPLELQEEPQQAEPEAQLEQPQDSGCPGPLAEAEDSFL

[4] = target: Fibroblast growth factor receptor 1 (Homo sapiens, UniProt P11362); experiment: Inhibition of FGFR1
Fibroblast growth factor receptor 1, sequence (P11362 whole entry): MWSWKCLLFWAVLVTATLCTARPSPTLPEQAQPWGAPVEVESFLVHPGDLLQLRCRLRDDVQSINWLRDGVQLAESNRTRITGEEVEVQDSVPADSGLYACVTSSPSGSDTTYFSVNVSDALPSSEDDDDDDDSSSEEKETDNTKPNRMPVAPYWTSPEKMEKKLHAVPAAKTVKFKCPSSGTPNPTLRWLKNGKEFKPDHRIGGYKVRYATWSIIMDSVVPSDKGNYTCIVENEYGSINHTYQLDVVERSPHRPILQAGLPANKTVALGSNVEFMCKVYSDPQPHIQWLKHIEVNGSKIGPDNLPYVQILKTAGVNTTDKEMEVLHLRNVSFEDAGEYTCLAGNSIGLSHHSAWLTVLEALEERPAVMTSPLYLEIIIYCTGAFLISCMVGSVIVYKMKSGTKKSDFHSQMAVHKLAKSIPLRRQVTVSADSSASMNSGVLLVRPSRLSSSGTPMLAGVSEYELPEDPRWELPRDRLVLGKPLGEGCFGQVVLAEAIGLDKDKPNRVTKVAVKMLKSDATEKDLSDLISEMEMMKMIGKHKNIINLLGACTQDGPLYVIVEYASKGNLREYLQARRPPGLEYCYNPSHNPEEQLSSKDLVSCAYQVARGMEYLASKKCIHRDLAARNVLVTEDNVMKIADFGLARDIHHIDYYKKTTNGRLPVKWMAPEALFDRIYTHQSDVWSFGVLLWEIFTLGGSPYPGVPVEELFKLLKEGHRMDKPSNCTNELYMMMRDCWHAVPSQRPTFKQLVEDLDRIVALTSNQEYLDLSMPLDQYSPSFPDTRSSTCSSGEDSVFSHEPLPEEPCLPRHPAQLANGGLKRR

[5] = system: HMEC; experiment: Inhibition of VEGF-mediated proliferation of HMVEC; assay type: functional, cell-based; details: Homo sapiens
[6] = Oral bioavailability in mouse; assay type: ADME, organism-based; details: in vivo
[7] = Clearance in mouse; assay type: ADME, organism-based; details: in vivo
[8] = Volume of distribution in mouse; assay type: ADME, organism-based; details: in vivo, read-out: Vdss
[9] = species: Mus musculus; experiment: Area under curve in mouse; assay type: ADME, organism-based; details: in vivo
[10] = system: KM12; experiment: Antitumor activity against human KM12L4a cell line xenografted in nude mice at 100 mg/kg, after 14 days; assay type: functional; details: Mus musculus, KM12, 336 h, read-out: TGI
[11] = Half life in mouse; assay type: ADME, organism-based; details: in vivo
[12] = system: KM12; experiment: Antitumor activity against human KM12L4a cell line xenografted in nude mice at 30 mg/kg, after 14 days; assay type: functional; details: Mus musculus, KM12, 336 h, read-out: TGI

Vascular endothelial growth factor receptor 1, sequence (P17948 whole entry): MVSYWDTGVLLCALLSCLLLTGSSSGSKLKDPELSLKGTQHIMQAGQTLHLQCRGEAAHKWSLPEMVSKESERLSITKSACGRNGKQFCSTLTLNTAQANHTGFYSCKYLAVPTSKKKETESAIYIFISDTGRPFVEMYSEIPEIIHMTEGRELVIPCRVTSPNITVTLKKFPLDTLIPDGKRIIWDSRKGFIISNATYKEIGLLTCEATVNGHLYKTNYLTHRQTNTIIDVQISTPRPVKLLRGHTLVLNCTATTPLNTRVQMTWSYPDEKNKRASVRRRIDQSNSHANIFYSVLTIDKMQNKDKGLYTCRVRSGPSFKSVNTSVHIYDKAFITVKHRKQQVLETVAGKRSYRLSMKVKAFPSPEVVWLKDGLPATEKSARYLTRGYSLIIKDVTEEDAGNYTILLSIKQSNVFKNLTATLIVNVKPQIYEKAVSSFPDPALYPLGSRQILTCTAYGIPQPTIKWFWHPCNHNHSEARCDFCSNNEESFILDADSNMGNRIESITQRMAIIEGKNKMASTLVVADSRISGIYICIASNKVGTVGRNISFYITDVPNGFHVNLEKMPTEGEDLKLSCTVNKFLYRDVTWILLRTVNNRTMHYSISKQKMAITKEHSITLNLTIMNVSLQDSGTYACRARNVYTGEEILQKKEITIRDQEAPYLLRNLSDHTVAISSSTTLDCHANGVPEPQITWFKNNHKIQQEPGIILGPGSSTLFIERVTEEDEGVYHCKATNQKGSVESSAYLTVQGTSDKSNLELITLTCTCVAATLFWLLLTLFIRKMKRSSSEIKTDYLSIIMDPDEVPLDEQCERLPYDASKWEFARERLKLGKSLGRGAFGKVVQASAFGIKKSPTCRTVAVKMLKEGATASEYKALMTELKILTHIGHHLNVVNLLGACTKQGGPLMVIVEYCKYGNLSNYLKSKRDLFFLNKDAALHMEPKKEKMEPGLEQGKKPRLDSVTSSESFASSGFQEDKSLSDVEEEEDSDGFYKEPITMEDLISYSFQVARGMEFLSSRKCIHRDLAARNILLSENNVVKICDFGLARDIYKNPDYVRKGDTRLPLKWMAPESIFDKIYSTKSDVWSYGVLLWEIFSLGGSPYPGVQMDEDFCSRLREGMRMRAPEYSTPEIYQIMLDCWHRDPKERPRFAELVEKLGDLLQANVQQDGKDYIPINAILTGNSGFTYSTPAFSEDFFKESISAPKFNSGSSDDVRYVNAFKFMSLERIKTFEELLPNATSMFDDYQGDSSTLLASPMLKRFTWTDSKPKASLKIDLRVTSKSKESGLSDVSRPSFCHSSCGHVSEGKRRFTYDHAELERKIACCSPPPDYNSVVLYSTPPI
Vascular endothelial growth factor receptor 2, sequence (P35918 whole entry): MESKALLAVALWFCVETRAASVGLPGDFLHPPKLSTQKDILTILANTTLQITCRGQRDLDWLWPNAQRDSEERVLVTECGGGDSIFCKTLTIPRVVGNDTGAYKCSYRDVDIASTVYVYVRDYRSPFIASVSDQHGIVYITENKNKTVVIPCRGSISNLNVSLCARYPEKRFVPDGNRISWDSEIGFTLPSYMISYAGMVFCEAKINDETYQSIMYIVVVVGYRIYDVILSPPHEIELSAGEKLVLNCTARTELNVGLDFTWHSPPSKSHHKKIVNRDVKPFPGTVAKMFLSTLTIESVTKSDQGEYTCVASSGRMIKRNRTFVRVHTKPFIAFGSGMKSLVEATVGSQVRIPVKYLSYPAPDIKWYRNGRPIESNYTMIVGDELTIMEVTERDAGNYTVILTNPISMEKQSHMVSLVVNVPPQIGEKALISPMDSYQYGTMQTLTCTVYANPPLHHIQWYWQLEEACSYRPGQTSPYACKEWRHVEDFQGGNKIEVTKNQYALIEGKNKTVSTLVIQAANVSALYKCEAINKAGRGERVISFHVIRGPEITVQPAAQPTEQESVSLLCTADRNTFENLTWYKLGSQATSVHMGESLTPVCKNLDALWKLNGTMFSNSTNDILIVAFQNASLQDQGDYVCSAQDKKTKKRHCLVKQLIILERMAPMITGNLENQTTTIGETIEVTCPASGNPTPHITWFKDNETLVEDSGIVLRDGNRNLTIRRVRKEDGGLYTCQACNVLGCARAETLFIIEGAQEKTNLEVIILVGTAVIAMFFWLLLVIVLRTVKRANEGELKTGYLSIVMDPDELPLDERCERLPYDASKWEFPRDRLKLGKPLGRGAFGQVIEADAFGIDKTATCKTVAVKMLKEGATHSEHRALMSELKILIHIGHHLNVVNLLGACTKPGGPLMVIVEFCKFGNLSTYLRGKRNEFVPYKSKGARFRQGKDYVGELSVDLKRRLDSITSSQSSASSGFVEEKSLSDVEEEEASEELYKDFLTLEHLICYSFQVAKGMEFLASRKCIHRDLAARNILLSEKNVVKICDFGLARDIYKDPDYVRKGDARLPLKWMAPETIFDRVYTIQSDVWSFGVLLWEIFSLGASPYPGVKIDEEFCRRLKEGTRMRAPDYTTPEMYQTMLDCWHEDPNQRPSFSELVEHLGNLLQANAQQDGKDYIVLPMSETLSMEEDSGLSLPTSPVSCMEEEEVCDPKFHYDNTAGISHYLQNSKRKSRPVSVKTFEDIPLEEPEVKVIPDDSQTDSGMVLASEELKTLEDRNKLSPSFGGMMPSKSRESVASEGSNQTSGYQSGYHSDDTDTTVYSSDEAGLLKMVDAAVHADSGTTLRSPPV

Row | Compound | IC50 [1] [nM] | IC50 [2] [nM] | IC50 [3] [nM] | IC50 [4] [nM] | EC50 [5] [nM] | bioavailability [6] [%] | clearance [7] [mL/min/kg] | Vd [8] [L/kg] | AUC [9] [ng·h/mL] | inhibition in vivo at 100 mg/kg [10] [%] | half-life [11] [h] | inhibition in vivo at 30 mg/kg [12] [%]
1 | CN1CCN(c2ccc3[nH]c(-c4[nH]nc5ccccc45)nc3c2)CC1 | 130 | 44 | 170 | 82 | 97 | – | – | – | – | – | – | –
2 | c1ccc2c(-c3nc4cc(OCCCN5CCCC5)ccc4[nH]3)[nH]nc2c1 | 170 | 48 | 440 | 98 | 270 | – | – | – | – | – | – | –
3 | CN1CCN(Cc2ccc3[nH]c(-c4[nH]nc5ccccc45)nc3c2)CC1 | 260 | 170 | 1900 | 270 | 300 | – | – | – | – | – | – | –
4 | c1ccc(COc2ccc3c(-c4nc5ccc(N6CCC(N7CCCCC7)CC6)cc5[nH]4)n[nH]c3c2)cc1 | 21 | 11 | 180 | 23 | 220 | – | – | – | – | – | – | –
5 | c1ccc2c(-c3nc4ccc(N5CCOCC5)cc4[nH]3)n[nH]c2c1 | 160 | 50 | 260 | 100 | 160 | – | – | – | – | – | – | –
6 | c1ccc(Oc2ccc3n[nH]c(-c4nc5cc(N6CCC(N7CCCCC7)CC6)ccc5[nH]4)c3c2)cc1 | 44 | 28 | 8 | 15 | 80 | – | – | – | – | – | – | –
7 | c1ccc2c(-c3nc4c(N5CCOCC5)cccc4[nH]3)n[nH]c2c1 | > 3000 | > 3000 | > 3000 | 830 | > 10000 | – | – | – | – | – | – | –
8 | Fc1cccc2c(-c3nc4ccc(N5CCC(N6CCCCC6)CC5)cc4[nH]3)n[nH]c12 | 330 | 150 | 2300 | 200 | 1400 | – | – | – | – | – | – | –
9 | Fc1ccc2c(-c3nc4cc(N5CCC(N6CCCCC6)CC5)ccc4[nH]3)[nH]nc2c1 | 28 | 10 | 310 | 28 | 33 | 62 | 71 | 24.8 | 2830 | 88 | 4.22 | 50
10 | CC(C)(C)NC(=O)Nc1cccc2c(-c3nc4cc(N5CCC(N6CCCCC6)CC5)ccc4[nH]3)[nH]nc12 | > 3000 | > 3000 | > 3000 | > 3000 | – | – | – | – | – | – | – | –
11 | CN1CCC(N(C)c2ccc3nc(-c4n[nH]c5ccccc45)[nH]c3c2)CC1 | 150 | 8 | 500 | 18 | 220 | – | – | – | – | – | – | –
12 | FC(F)(F)c1ccc2c(-c3nc4ccc(N5CCC(N6CCCCC6)CC5)cc4[nH]3)n[nH]c2c1 | 52 | – | 62 | – | 4 | – | – | – | – | – | – | –
13 | c1ccc(COc2ccc3[nH]nc(-c4nc5ccc(N6CCC(N7CCCCC7)CC6)cc5[nH]4)c3c2)cc1 | 30 | 3 | 83 | 8 | 190 | – | – | – | – | – | – | –
14 | c1ccc2c(-c3nc4cc(-n5ccnc5)ccc4[nH]3)n[nH]c2c1 | 83 | 96 | 1400 | 210 | 7000 | – | – | – | – | – | – | –
15 | CC(C)(C)NC(=O)Nc1ccc2[nH]nc(-c3nc4ccc(N5CCC(N6CCCCC6)CC5)cc4[nH]3)c2c1 | 5 | – | 81 | – | 350 | – | – | – | – | – | – | –
16 | c1ccc2c(-c3nc4ccc(N5CCC(N6CCCCC6)CC5)cc4[nH]3)n[nH]c2c1 | 78 | 28 | 690 | 48 | 97 | – | – | – | – | – | – | –
17 | c1cc2[nH]nc(-c3nc4ccc(N5CCC(N6CCCCC6)CC5)cc4[nH]3)c2cc1NCC1CCCCC1 | 44 | 21 | 1700 | 16 | 220 | – | – | – | – | – | – | –
18 | CC(C)(C)NC(=O)Nc1cccc2[nH]nc(-c3nc4cc(N5CCC(N6CCCCC6)CC5)ccc4[nH]3)c12 | 70 | 4 | 440 | 3 | 240 | – | – | – | – | – | – | –
19 | c1ccc(COc2cccc3c(-c4nc5cc(N6CCC(N7CCCCC7)CC6)ccc5[nH]4)[nH]nc23)cc1 | > 3000 | > 3000 | > 3000 | > 3000 | 1800 | – | – | – | – | – | – | –
20 | COC(=O)c1ccc2[nH]nc(-c3nc4ccc(N5CCC(N6CCCCC6)CC5)cc4[nH]3)c2c1 | 31 | 15 | 63 | 73 | 130 | – | – | – | – | – | – | –
21 | Nc1c(-c2nc3ccccc3[nH]2)c(=O)[nH]c2ccccc12 | – | – | – | – | 78 | – | – | – | – | – | – | –
22 | c1ccc2[nH]c(-c3n[nH]c4ccccc34)nc2c1 | 3300 | 720 | 3400 | 1400 | 5900 | – | – | – | – | – | – | –
23 | c1ccc(COc2cccc3[nH]nc(-c4nc5cc(N6CCC(N7CCCCC7)CC6)ccc5[nH]4)c23)cc1 | 660 | 63 | 1800 | 94 | 460 | – | – | – | – | – | – | –
